Entries after “also recorded” stand apart in the source; their conditions may differ. Where two headings read alike, the source gives them in different places. Each block holds one molecule with its values, some of them ahead of it.
Experiments:
[1] = system: Glucose dehydrogenase (immobilized enzyme); conditions: substrate glucose, NADP; 1M additive/buffer pH 7.0; 25° C. for 30 minutes
Experimental: (§1) The solution was stirred at 25° C. for 30 minutes to allow the enzyme to react with the substrate. Then, WST1 and mPMS were added for color development. Absorbance was measured with a spectrophotometer.

[2] = system: Glutamate dehydrogenase (immobilized enzyme); conditions: substrate monosodium glutamate, NADP; 1M additive/buffer pH 7.0; 25° C. for 30 minutes
Experimental: as §1

[3] = system: Formate dehydrogenase (immobilized enzyme); conditions: substrate sodium formate, NAD; 1M additive/buffer pH 7.0; 25° C. for 30 minutes
Experimental: as §1

[4] = system: Formate dehydrogenase (immobilized enzyme); assay: Effects of heterocyclic compounds on activity of immobilized formate dehydrogenase (WST1/mPMS, absorbance), Examples 4-8; conditions: for enzyme activity of immobilized enzyme in the presence of the heterocyclic compound (in words): immobilized formate dehydrogenase, Examples 4-8
Experimental: A support was applied a fibrous base material cut in pieces 1 cm^2 in area, followed by drying. Each piece of fibrous base material was allowed to absorb a liquid obtained by mixing 2.5% glutaraldehyde, 20% poly-L-lysine, 10 mM Tris-HCl (pH 8.0), and formate dehydrogenase, followed by drying. Thus, immobilized enzymes were prepared.
The solution was stirred at 25° C. for 30 minutes to induce a reaction. Then, WST1 and mPMS were added for color development. Absorbance was measured with a spectrophotometer (Infinite M200 manufactured by TECAN).

Molecule: Cl.c1c[nH]cn1 [Example 1, imidazole HCl]
- OD [1]: 0.4668

Molecule: Cl.c1c[nH]cn1 [Example 2, imidazole HCl]
- OD [2]: 1.1707

Molecule: Cl.c1c[nH]cn1 [Example 3, imidazole HCl]
- OD [3]: 0.5996

Molecule: c1cnccn1 [Example 4, Pyrazine]
- enzyme activity of immobilized enzyme in the presence of the heterocyclic compound (in words) [4]: excellent enzyme activity; also recorded: significantly improved enzyme activity

Molecule: O=C1NCCN1 [Example 5, 2-Imidazolidinone]
- enzyme activity of immobilized enzyme in the presence of the heterocyclic compound (in words) [4]: excellent enzyme activity; also recorded: significantly improved enzyme activity

Molecule: C=Cn1ccnc1 [Example 6, 1-Vinylimidazole]
- enzyme activity of immobilized enzyme in the presence of the heterocyclic compound (in words) [4]: excellent enzyme activity; also recorded: significantly improved enzyme activity

- OD ([4]; 0.2M heterocyclic compound, 25° C. for 30 minutes): 1.1902
- enzyme activity of immobilized enzyme in the presence of the heterocyclic compound (in words) [4]: excellent enzyme activity
Molecule: N[C@@H](Cc1c[nH]cn1)C(=O)O [Example 8, Histidine]

Molecule: sodium phosphate buffer [Comparative Example 1, reference compound]
- OD [1]: 0.1598

- OD [3]: 0.4134
Molecule: sodium phosphate buffer [Comparative Example 3, reference compound]

- OD [2]: 0.3966
Molecule: sodium phosphate buffer [reference compound]

Reference: patent US10490837B2, “Bioreactor comprising immobilized enzyme, method for improving activity of immobilized enzyme, and biofuel cell” (TOYOTA JIDOSHA KABUSHIKI KAISHA, priority 2012, dated 2019)
